Experimental findings from publication PMC6862662, “In Vitro Evaluation and Docking Studies of 5-oxo-5H-furo[3,2-g]chromene-6-carbaldehyde Derivatives as Potential Anti-Alzheimer’s Agents” (International Journal of Molecular Sciences, 2019) are described below.

Series [1] concerns the target T1, AChE (Homo sapiens, UniProt P22303).
T1 construct: purchased BL, purchased through BIOCOM Africa (Pty) Ltd. 768104
In words: biochemical.

Series [2] deals with T2, BChE (Homo sapiens, UniProt P06276).
T2 construct: purchased cloud-clone corp., purchased through BIOCOM Africa (Pty) Ltd. RPC348Hu0 2_100
T2 sequence (P06276 29-602): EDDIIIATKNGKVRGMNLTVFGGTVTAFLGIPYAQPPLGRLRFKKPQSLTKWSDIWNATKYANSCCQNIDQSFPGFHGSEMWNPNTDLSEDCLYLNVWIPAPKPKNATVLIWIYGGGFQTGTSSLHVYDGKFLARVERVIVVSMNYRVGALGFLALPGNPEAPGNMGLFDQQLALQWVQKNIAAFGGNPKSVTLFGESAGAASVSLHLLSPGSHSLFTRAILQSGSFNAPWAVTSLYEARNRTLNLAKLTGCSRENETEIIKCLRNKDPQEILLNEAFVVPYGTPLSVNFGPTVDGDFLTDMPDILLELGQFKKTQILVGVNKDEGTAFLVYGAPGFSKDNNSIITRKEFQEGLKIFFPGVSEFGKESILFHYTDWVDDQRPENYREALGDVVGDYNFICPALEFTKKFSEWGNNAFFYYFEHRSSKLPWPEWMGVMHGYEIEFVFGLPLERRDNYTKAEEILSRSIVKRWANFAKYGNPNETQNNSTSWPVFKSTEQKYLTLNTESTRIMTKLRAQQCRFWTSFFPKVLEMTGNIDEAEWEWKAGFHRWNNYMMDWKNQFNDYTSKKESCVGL
In words: biochemical.
Description: The mixtures were incubated for 15 min at RT. The reaction was initiated by adding of 10 µL of mixture solution of 5 mM 5,50-dithio-bis-nitrobenzoic acid (DTNB) in 50 mM tris buffer (pH 7.7) and 10 µL acetylthiocholine (ASCh; 5 mM) in 50 mM tris buffer, pH 7.7 into the wells containing the mixtures. The hydrolysis of ASCh was determined by monitoring the formation of the yellow 5-thio-2-nitrobenzoate anion resulting from reaction of DTNB with thiocholines (SCh).
The IC50 values were determined graphically from inhibition curves (inhibitor concentration and absorbance) using the graph pad prism.

In a further series the target is T3, human recombinant BACE-1 (Homo sapiens, UniProt P56817).
T3 construct: purchased Pan Vera; host or cells: baculovirus-expressed
T3 sequence (P56817 46-501): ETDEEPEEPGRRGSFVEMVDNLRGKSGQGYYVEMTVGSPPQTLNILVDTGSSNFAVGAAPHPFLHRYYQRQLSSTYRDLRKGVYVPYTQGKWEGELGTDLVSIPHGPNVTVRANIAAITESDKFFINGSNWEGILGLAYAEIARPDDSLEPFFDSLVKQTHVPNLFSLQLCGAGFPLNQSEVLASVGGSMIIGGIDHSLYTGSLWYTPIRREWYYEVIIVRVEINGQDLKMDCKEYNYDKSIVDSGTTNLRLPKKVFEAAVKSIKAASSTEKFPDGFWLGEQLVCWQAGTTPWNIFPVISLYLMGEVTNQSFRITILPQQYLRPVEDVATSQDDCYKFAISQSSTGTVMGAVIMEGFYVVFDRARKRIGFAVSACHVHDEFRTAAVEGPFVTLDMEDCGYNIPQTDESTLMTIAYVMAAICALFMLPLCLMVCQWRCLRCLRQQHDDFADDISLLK
Description: β-secretase FRET inhibitory assay. The class given is biochemical. Particulars: triplicate.

Series [3] has as its system lipoxygenase-15 (Soybean LOX-15). The class given is biochemical. To be noted: ratio not defined in print; matches IC50 LOX-15/LOX-5.
Description: Stock solutions (200 µM) of tested samples were prepared in DMSO. The stock solutions were further diluted with 50 mM Tris buffer of pH 7.7 to obtain concentrations of 0.01, 0.1, 1, 10 and 100 µM. The cells of a 96-well plate where distributed as follows: two wells taken as blanks (100 µL 50 mM Tris buffer pH 7.7), two wells taken as positive controls (90 µL of 15-LO Standard and 10 µL of DMSO) and two wells as 100% initial activity wells (90 µL lipoxygenase enzyme solution and 10 µL tris buffer). […] The 96-well plate was then incubated for 5 min at room temperature. The reaction was initiated by the addition of 10 µL of the substrate (arachidonic acid) to each well containing the mixtures. After shaking the 96-well plate on a shaker for 5 min, 100 µL of the chromogen (solution of equal volume developing reagent 1 and 2) was added to each well to stop enzyme catalysis and develop the reaction. The plate was again shaken for 5 min and the absorbance read at 490 nm in a Varioskan flash microplate spectrophotometer reader. The inhibitory concentration was expressed as a percentage using the formula below. […]
ASample is the absorbance of the reaction mixture of the test sample, ABlank sample is the absorbance of the reaction mixture containing all reagents except enzyme and AInitial activity is the absorbance of 100% initial activity.
Series [4] addresses T4, human lipoxygenase-5 (LOX-5) (Homo sapiens, UniProt P09917).
T4 construct: purchased BioVision K980
T4 sequence (P09917 1-674): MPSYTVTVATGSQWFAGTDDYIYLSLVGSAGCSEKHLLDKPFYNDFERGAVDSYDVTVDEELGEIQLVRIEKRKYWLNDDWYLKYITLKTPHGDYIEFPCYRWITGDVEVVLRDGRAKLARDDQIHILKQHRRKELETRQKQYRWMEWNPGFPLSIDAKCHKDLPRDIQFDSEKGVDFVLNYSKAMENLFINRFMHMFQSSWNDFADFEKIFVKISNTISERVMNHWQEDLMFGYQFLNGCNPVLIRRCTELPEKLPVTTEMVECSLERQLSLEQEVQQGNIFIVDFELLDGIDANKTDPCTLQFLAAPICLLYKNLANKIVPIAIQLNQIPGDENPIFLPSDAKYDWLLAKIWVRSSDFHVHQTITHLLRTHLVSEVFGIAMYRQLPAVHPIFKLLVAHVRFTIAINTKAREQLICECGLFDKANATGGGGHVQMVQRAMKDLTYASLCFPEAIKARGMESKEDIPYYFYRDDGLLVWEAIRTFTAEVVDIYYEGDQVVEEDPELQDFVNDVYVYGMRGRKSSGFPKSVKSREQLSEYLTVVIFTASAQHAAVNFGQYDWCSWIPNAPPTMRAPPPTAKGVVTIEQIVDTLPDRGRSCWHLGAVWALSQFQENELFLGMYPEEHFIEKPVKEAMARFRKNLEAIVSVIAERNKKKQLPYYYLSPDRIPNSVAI
Description: Human LOX-5 inhibitory assay. The class given is biochemical. Particulars: human LOX-5, duplicate.
Description: The reagents were prepared according to the Lipoxygenase inhibitor screening kit (Item No. K980; BioVision, Milpitas Blvd, Milpitas, CA, USA) standard protocol. […] The cells of a 96-well plate where distributed as follows: two wells were taken as blanks (100 µL of assay buffer), two wells enzyme controls (90 µL of 15-LO Standard and 10 µL of tris buffer), two wells as 100% initial activity wells (90 µL and 10 µL DMSO) and three wells as enzyme control (40 µL). […] Forty µL of the reaction mixture (prepared by mixing thoroughly 36 µL of LOX assay buffer, 2 µL of LOX probe and 2 µL of 5-LOX enzyme) were added to each well and incubated for 10 min. at RT. The DMSO concentration in each reaction well was 1% to prevent enzyme structural deformation and therefore, reduced activity. […] The percentage inhibition (%) was calculated using the equation below. (4) % Inhibition=Control−Test/Control×100.

A short description of series [5]: DPPH radical scavenging activity assay. To be noted: triplicate, preliminary. How it is done: DPPH radical scavenging activity of compounds 2b, 2f, 3b, 3d and 3f was evaluated following the literature method. Ascorbic acid (Sigma Aldrich, Saint Louis, Missouri, USA) was used as a positive control. The test compounds and controls at various concentrations ranging from (0 µM to 40 µM) in DMSO were mixed with a solution of DPPH (0.20 mM) in methanol. The mixtures were incubated in the dark for 45 min and the absorbances were recorded at 512 nm using Varioskan flash microplate spectrophotometer reader. All tests and analyses were run in triplicate and averaged. The inhibition was calculated in terms of percentage using the formula below:(5) DPPH radical scavenged (%)=AbC−AbS/AbC×100, where AbC is absorbance of control and AbS the absorbance of the test sample.
A general note: Loss of DPPH colour is used to gauge radical scavenging.

The target of series [6] is T1, AChE. In words: Kinetic studies against AChE (Lineweaver–Burk and Dixon plots). The class given is biochemical. How it is done: (§1) Compounds 2f, 2b, 2f, 3b, 3d and 3f were selected for the kinetic studies with substrate concentrations 0.1, 0.5, 2. 5 and 5 µM for ChEs following procedures described in our previous investigation. The Lineweaver–Burk plots (plots of the inverse of velocity (1/v) against the inverse of the substrate concentration (1/[S])) were used to ascertain the mode of inhibition of these compounds.

In series [7] the target is T2, BChE. In words: Kinetic studies against BChE (Lineweaver–Burk and Dixon plots). The class given is biochemical. How it is done: as §1
A further series addresses T5, β-secretase (BACE-1) (Homo sapiens, UniProt P56817).
T5 construct: purchased Pan Vera; host or cells: baculovirus-expressed
In words: Kinetic studies against β-secretase (Lineweaver–Burk and Dixon plots). The class given is biochemical. How it is done: Compound 2f was selected for the kinetic studies with substrate concentrations 150, 300 and 450 nM for β-secretase following procedure described in our previous investigation. The Lineweaver–Burk plot (plot of the inverse of velocity (1/v) against the inverse of the substrate concentration (1/[S])) was used to ascertain the mode of inhibition of this compound.

In series [8] the test system is breast cancer cell line MCF-7. Description: MTT cytotoxicity assay, MCF-7. The class given is cell-based. To be noted: Homo sapiens, MCF7; MTT assay, 24 h, preliminary; read-out: IC50 against MCF-7 cancer cell line. A general note: Tetrazolium assays rely on reduction of a dye to a coloured formazan, in cell work by metabolically active cells.
Description: (§2) Briefly, the cells were seeded in 96-well plate at a density of 20 × 10^3 cells per well and then incubated at 37 °C in 5% CO2 to allow cell attachment. […] An equal volume of medium was used as the control treatment. After treatment for 24 h, 10 μL MTT (5 mg/mL) was added to each well and the plate was further incubated for 4 h later. The supernatant was removed and 100 μL of DMSO was added to each well to dissolve the resulting formazan crystals. The absorbance was read at 570 nm using the Varioskan flash microplate spectrophotometer reader. The percentages of cell viability were used to determine the IC50 values.
Another series deals with Hek293-T cells. Description: MTT cytotoxicity assay, Hek293-T. The class given is cell-based. Particulars: 24 h, till 50 μM.
The mark [9] stands for this setting: Lineweaver–Burk and Dixon plots.

T1 sequence (P22303 32-614): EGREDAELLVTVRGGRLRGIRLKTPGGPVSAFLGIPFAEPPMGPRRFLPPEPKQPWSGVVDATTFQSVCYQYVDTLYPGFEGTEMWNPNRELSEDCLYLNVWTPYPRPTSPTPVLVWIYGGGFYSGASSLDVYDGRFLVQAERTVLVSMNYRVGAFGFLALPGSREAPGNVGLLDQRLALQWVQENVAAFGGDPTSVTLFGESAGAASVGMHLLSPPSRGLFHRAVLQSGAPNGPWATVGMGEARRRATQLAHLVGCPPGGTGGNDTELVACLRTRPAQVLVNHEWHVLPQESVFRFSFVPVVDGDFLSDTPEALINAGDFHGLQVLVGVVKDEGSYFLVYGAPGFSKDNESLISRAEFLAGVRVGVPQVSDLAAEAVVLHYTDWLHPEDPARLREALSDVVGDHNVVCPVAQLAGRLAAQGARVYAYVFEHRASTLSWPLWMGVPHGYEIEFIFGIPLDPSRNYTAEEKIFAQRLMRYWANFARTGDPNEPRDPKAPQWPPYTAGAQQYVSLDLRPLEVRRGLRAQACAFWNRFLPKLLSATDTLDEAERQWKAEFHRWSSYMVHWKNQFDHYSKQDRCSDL
T5 sequence (P56817 46-501): as the sequence (P56817 46-501) above
Description for Hek293-T cells: as §2

One may read the IC50 as the concentration at which inhibition is half-maximal. The Ki is the equilibrium dissociation constant of an inhibitor or competing ligand from its target. The low end stands for higher affinity, the high end for lower affinity. As to `COc1ccc(-c2cc3cc4c(=O)c(C=O)coc4cc3o2)cc1` [Compound 2f, 2-(4-Methoxyphenyl)-5-oxo-5H-furo[3,2-g]chromene-6-carbaldehyde], the IC50 is 9.4 ± 0.01 µM at AChE [1]; 5.1 ± 0.02 µM against BChE [2] (Ellman's method, triplicate); 15.4 ± 0.02 µM on human recombinant BACE-1; 15.3 ± 0.01 µM in series [4]; 18.1 ± 0.03 µM in series [5]; 8.65 ± 0.03 µM in series [8]. For the same compound, the “SI BChE/AChE” value at AChE [1] (Selectivity index IC50 (BChE)/IC50 (AChE)) was 0.54. Also, the “SI AChE/BChE” value on BChE [2] (Selectivity index IC50 (AChE)/IC50 (BChE)) is reported as 1.85. Further, in series [3], the “SI (LOX-15 vs LOX-5)” value was determined as 0.63. The Ki at AChE [6] (Dixon plots) turned out to be 1.34 ± 0.02 µM; on BChE [7] (Dixon plots), 3.9 ± 0.01 µM; at β-secretase (BACE-1) (Dixon plot) it was 1.49 ± 0.01 µM. Besides, the “mode of inhibition against AChE” value at AChE [6] (setting [9]) is on record as “competitive”. Moreover, the “Vmax against AChE” value at AChE [6] (Lineweaver–Burk plots, increasing inhibitor concentration) is 0.03 ± 0.018. Further, at BChE [7] (setting [9]), the “mode of inhibition against BChE” value is on record as “non-competitive”. Moreover, at β-secretase (BACE-1) (setting [9]), the “mode of inhibition against β-secretase” value is reported as “mixed mode of inhibition”. For the same compound, the “toxicity in Hek293-T cells” value in the series on Hek293-T cells is “did not show any major toxicity”.
